Measurements: US11168073B2, “3,3-difluoroallylamines or salts thereof and pharmaceutical compositions comprising the same” (YUHAN CORPORATION, priority 2018, dated 2021)
Structures can show the parent of a compound that is named as a salt. Where two headings read alike, the source gives them in different places.

What was measured:
Assay type in all cases: biochemical
[1] = biological target: T1, recombinant human DAO (diamine oxidase) (Homo sapiens, UniProt P19801); assay: Activity evaluation on recombinant human DAO (Amplex Red/HRP-coupled assay, 1 mM putrescine substrate); details: read-out: Inhibitory Activity (IC50, nM) DAO
T1 construct: purchased R&D systems
T1 sequence (P19801 20-751): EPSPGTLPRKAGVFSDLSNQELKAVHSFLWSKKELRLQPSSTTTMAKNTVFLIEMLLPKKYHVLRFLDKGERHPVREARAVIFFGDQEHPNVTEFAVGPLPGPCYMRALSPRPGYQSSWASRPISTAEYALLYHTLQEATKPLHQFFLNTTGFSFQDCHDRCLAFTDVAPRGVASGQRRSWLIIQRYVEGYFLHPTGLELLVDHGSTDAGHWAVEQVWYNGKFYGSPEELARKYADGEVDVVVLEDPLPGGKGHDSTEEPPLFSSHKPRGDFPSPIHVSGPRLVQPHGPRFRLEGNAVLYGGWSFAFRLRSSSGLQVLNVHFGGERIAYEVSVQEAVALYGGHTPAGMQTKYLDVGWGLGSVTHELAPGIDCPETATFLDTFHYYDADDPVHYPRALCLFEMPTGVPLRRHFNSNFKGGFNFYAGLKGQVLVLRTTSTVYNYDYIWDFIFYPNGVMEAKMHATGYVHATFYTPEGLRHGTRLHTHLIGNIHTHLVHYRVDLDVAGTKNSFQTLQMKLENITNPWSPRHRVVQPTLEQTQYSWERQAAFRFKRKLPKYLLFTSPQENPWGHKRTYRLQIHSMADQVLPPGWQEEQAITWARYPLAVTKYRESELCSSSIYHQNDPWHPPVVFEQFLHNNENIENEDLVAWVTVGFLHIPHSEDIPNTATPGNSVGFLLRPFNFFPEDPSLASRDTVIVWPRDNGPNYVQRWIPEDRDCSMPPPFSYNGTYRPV
Procedure, shortened: (§1)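 Enzyme was preincubated with compounds (8-point 1:3 series, final DMSO <1%) 30 min at 37 °C in 50 mM sodium phosphate pH 7.4, then given 200 uM Amplex Red and 1 U/mL HRP with substrate. H2O2-derived resorufin fluorescence (ex 544/em 590 nm) was followed over 1–2 h; IC50 came from 4-parameter logistic fits of signal-rate inhibition versus DMSO control.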

recombinant human VAP-1 = biological target: T2, recombinant human VAP-1 (Homo sapiens, UniProt Q16853); assay: Activity evaluation on recombinant human VAP-1 (Amplex Red/HRP-coupled hydrogen peroxide assay, benzylamine substrate); details: read-out: Inhibitory Activity (IC50, nM) human VAP-1
T2 construct: purchased R&D systems
T2 sequence (Q16853 1-763): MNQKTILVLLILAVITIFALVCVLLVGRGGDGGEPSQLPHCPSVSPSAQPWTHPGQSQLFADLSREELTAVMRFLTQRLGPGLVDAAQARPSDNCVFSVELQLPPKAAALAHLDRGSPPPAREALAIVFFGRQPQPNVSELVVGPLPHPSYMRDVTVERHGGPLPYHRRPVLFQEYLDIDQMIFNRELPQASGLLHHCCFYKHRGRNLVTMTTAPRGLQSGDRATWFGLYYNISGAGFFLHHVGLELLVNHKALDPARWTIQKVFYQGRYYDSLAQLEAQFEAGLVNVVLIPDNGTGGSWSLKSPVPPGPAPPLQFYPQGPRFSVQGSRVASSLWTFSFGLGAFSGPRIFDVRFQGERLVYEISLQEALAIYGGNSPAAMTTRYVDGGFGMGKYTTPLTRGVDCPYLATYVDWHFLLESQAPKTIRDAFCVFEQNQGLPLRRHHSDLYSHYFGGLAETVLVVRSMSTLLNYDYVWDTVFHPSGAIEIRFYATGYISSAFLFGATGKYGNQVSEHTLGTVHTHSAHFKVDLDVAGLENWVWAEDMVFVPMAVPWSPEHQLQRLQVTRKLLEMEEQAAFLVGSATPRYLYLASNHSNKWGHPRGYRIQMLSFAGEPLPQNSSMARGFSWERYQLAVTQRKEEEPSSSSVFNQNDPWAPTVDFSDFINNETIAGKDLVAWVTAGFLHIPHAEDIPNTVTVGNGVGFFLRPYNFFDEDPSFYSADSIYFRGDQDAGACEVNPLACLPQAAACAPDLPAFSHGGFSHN
Procedure, shortened: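 Recombinant human VAP-1 in 50 mM sodium phosphate pH 7.4 preincubated 30 min at 37 °C with compound (8-point 1:3 series, <1% DMSO), then 1 mM benzylamine, 200 uM Amplex Red, 1 U/mL HRP added. H2O2-derived resorufin fluorescence (ex 544/em 590) followed 1–2 h; IC50 from four-parameter fit of rate inhibition.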

[2] = biological target: T3, recombinant human MAO-A (monoamine oxidase-A) (Homo sapiens, UniProt P21397); assay: Activity evaluation on recombinant human MAO-A (Amplex Red/HRP-coupled assay, 0.5 mM tyramine substrate); details: read-out: Inhibitory Activity (IC50, nM) MAO-A
T3 construct: purchased Sigma-Aldrich
T3 sequence (P21397 1-527): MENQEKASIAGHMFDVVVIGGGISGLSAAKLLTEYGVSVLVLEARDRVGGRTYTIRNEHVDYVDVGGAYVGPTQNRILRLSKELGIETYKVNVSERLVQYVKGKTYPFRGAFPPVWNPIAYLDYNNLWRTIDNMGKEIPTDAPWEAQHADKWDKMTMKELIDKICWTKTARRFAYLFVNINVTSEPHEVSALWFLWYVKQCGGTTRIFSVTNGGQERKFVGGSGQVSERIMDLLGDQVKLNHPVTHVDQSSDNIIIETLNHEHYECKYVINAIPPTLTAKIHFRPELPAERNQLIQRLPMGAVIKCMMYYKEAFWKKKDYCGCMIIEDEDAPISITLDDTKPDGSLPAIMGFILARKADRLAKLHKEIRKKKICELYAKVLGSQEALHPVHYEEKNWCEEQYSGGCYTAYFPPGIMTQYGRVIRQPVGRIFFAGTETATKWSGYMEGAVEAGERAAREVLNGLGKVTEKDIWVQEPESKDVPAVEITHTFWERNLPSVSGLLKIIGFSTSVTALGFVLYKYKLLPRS
Procedure, shortened: as §1

[3] = biological target: T4, recombinant human MAO-B (monoamine oxidase-B) (Homo sapiens, UniProt P27338); assay: Activity evaluation on recombinant human MAO-B (Amplex Red/HRP-coupled assay, 1 mM benzylamine substrate); details: read-out: Inhibitory Activity (IC50, nM) MAO-B
T4 construct: purchased Sigma-Aldrich
T4 sequence (P27338 1-520): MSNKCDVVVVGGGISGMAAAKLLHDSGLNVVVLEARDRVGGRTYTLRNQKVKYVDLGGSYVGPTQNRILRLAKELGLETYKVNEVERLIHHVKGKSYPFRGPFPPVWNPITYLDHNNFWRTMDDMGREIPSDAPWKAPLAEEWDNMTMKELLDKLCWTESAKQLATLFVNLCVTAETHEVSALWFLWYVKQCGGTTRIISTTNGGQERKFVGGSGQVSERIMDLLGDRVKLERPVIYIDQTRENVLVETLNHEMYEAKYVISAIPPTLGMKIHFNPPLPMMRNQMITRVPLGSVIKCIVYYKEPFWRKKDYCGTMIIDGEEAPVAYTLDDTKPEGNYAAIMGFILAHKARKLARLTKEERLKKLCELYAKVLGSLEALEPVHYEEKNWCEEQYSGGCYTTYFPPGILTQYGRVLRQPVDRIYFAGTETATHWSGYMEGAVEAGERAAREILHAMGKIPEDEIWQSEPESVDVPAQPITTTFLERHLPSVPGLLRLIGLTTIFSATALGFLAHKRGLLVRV
Procedure, shortened: as §1

[4] = recombinant human VAP-1, 30 min preincubation at 37° C., 1 mM benzylamine
[5] = recombinant human VAP-1, benzylamine substrate

| SMILES | IC50 ([1]; 1 mM putrescine) [nM] | IC50 (recombinant human VAP-1; [4]) [nM] | IC50 ([2]; 0.5 mM tyramine) [nM] | IC50 ([3]; 1 mM benzylamine) [nM] | IC50 ([1]; 1 mM putrescine substrate) [nM] | IC50 (recombinant human VAP-1; [5]) [nM] | IC50 ([2]; 0.5 mM tyramine substrate) [nM] | IC50 ([3]; 1 mM benzylamine substrate) [nM] |
| --- | --- | --- | --- | --- | --- | --- | --- | --- |
| NCC(Cn1ncn(-c2ccc(-c3ccc(N4CCNCC4)cc3)cc2F)c1=O)=C(F)F [Example 32, 2-[2-(aminomethyl)-3,3-difluoro-allyl]-4-[2-fluoro-4-(4-piperazin-1-ylphenyl)phenyl]-1,2,4-triazol-3-one Ditrifluoroacetate] | 670 | 1.3 | > 100000 | 17000 |  |  |  |  |
| Cc1cc(-c2ccc3c(c2)OCCN3C)cnc1-n1cnn(CC(CN)=C(F)F)c1=O [Example 223, 2-[2-(aminomethyl)-3,3-difluoro-allyl]-4-[3-methyl-5-(4-methyl-2,3-dihydro-1,4-benzoxazin-7-yl)-2-pyridyl]-1,2,4-triazol-3-one Trifluoroacetate] |  |  |  |  | 37000 | 1.5 | > 10000 | 38000 |
| NCC(Cn1ncn(Cc2ccc(-c3ccc(N4CCNCC4)cc3)cc2)c1=O)=C(F)F [Example 266, 2-[2-(aminomethyl)-3,3-difluoro-allyl]-4-[[4-(4-piperazin-1-ylphenyl)phenyl]methyl]-1,2,4-triazol-3-one Ditrifluoroacetate] |  |  |  |  | 330 | 9.1 | > 100000 | > 100000 |
| CCn1cc(-c2csc(Cn3cnn(CC(CN)=C(F)F)c3=O)c2)cn1 [Example 153, 2-[2-(aminomethyl)-3,3-difluoro-allyl]-4-[[4-(1-ethylpyrazol-4-yl)-2-thienyl]methyl]-1,2,4-triazol-3-one Trifluoroacetate] | 36000 | 1.3 | > 100000 | 29000 |  |  |  |  |
| NCC(Cn1ncn(-c2cccc(-c3ccc(C(F)(F)F)nc3)n2)c1=O)=C(F)F [Example 48, 2-[2-(aminomethyl)-3,3-difluoro-allyl]-4-[6-[6-(trifluoromethyl)-3-pyridyl]-2-pyridyl]-1,2,4-triazol-3-one Trifluoroacetate] | 61 | 1 | > 100000 | 31000 |  |  |  |  |
| NCC(Cn1ncn(-c2cccc(-c3ccc4c(c3)NC(=O)OC4)n2)c1=O)=C(F)F [Example 219, 7-[6-[1-[2-(aminomethyl)-3,3-difluoro-allyl]-5-oxo-1,2,4-triazol-4-yl]-2-pyridyl]-1,4-dihydro-3,1-benzoxazin-2-one Trifluoroacetate] |  |  |  |  | 47 | 0.2 | > 100000 | 68500 |
| NCC(Cn1ncn(Cc2cc3cc(-c4ccc(N5CCNCC5)cc4)ccc3s2)c1=O)=C(F)F [Example 206, 2-[2-(aminomethyl)-3,3-difluoro-allyl]-4-[[5-(4-piperazin-1-ylphenyl)benzothiophen-2-yl]methyl]-1,2,4-triazol-3-one Ditrifluoroacetate] |  |  |  |  | 639 | 2.3 | > 100000 | 14600 |
| CS(=O)(=O)c1ccc(-c2cccc(-n3cnn(CC(CN)=C(F)F)c3=O)c2)cc1 [Example 17, 2-[2-(aminomethyl)-3,3-difluoro-allyl]-4-[3-(4-methylsulfonylphenyl)phenyl]-1,2,4-triazol-3-one Trifluoroacetate] | 1300 | 12 | > 100000 | > 10000 |  |  |  |  |
| Cc1cc(-c2ccc3cc(Cn4cnn(CC(CN)=C(F)F)c4=O)sc3c2)cc2c1NC(=O)CC2 [Example 202, 6-[2-[[1-[2-(aminomethyl)-3,3-difluoro-allyl]-5-oxo-1,2,4-triazol-4-yl]methyl]benzothiophen-6-yl]-8-methyl-3,4-dihydro-1H-quinolin-2-one Trifluoroacetate] |  |  |  |  | 5600 | 2 | > 100000 | > 100000 |
| CCOc1ncc(-c2ccc(Cn3cnn(CC(CN)=C(F)F)c3=O)s2)cn1 [Example 117, 2-[2-(aminomethyl)-3,3-difluoro-allyl]-4-[[5-(2-ethoxypyrimidin-5-yl)-2-thienyl]methyl]-1,2,4-triazol-3-one Trifluoroacetate] | 7100 | 1.1 | > 100000 | > 100000 |  |  |  |  |
| CCn1cc(-c2ccc(Cn3cnn(CC(CN)=C(F)F)c3=O)s2)ccc1=O [Example 122, 5-[5-[[1-[2-(aminomethyl)-3,3-difluoro-allyl]-5-oxo-1,2,4-triazol-4-yl]methyl]-2-thienyl]-1-ethyl-pyridin-2-one Trifluoroacetate] | 54000 | 0.4 | > 100000 | 25000 |  |  |  |  |
| NCC(Cn1ncn(Cc2ccc(-c3ccc4c(c3)COC(=O)N4)s2)c1=O)=C(F)F [Example 143, 6-[5-[[1-[2-(aminomethyl)-3,3-difluoro-allyl]-5-oxo-1,2,4-triazol-4-yl]methyl]-2-thienyl]-1,4-dihydro-3,1-benzoxazin-2-one Trifluoroacetate] | > 10000 | 0.2 | > 100000 | 6400 |  |  |  |  |
